In article PMC5590943, “Pharmacological characterisation of S 47445, a novel positive allosteric modulator of AMPA receptors” (PLoS ONE, 2017):

What was measured:
Rat AMPA receptors = experiment: AMPA-evoked currents, Xenopus laevis oocytes injected with rat cortex poly(A+) mRNA (two-electrode voltage clamp); format: cell-based; conditions: for EC2X: concentration giving a two-fold increase in current amplitude; for EC2X / EC50: geometric mean; for Emax (fold increase): maximal potentiation, mean ± SEM; for EC50: potentiation of 10 μM AMPA-evoked current
Method: (§1) Compounds were tested by bath application.

GluA3flop receptors = system: GluA3flop receptors; parameters: method as in PMID 9221774, PMID 11408529; conditions: Xenopus oocytes; cited from earlier work
Human AMPA receptors = experiment: AMPA-evoked currents, Xenopus laevis oocytes injected with human hippocampal poly(A+) mRNA; format: cell-based; conditions: for EC2X: concentration giving a two-fold increase in current amplitude; for EC2X / EC50: geometric mean; for Emax (fold increase): maximal potentiation, mean ± SEM; for EC50: potentiation of 10 μM AMPA-evoked current
Method: as §1

[1] = system: isolated prefrontal cortex pyramidal neurons; parameters: method as in PMID 9221774, PMID 11408529; conditions: patch-clamp; cited from earlier work
[2] = molecular target: T1, GluA1flop/GluA2flip AMPA receptors (Homo sapiens, UniProt P42261+P42262, Q607R); experiment: 10 μM glutamate-evoked currents in Xenopus laevis oocytes expressing GluA1flop/GluA2flip (repetitive pulses, GYKI52466); format: cell-based; conditions: GYKI52466 10 to 1000 μM; 10 μM glutamate
T1 construct: host or cells: Xenopus laevis oocytes
T1 sequence (P42261 19-906): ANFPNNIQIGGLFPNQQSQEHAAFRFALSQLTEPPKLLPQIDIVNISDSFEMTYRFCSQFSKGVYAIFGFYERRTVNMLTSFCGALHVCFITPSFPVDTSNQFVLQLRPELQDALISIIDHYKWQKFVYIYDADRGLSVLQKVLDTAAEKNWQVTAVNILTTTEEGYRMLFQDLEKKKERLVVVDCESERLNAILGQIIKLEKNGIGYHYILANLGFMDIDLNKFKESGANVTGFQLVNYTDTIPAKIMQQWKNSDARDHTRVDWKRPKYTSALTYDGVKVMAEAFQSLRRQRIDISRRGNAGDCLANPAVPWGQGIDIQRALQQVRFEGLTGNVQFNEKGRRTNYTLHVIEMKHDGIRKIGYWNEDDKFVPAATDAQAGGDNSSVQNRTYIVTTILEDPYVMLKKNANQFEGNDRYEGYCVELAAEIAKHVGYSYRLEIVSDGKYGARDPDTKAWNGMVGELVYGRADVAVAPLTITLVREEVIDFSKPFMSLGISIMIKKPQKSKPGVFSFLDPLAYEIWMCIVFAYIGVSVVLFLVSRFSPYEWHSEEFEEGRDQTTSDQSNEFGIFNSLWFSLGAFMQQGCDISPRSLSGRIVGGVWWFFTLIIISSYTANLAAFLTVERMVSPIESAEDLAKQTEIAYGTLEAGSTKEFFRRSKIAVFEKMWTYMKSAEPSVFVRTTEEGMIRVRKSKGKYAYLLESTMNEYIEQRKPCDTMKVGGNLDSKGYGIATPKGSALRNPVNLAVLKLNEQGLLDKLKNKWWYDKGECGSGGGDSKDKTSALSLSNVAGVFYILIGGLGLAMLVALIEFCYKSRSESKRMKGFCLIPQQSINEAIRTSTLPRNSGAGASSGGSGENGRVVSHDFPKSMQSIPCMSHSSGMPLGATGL
T1 sequence (P42262 22-883 isoform P42262-2 Q607R limits assumed): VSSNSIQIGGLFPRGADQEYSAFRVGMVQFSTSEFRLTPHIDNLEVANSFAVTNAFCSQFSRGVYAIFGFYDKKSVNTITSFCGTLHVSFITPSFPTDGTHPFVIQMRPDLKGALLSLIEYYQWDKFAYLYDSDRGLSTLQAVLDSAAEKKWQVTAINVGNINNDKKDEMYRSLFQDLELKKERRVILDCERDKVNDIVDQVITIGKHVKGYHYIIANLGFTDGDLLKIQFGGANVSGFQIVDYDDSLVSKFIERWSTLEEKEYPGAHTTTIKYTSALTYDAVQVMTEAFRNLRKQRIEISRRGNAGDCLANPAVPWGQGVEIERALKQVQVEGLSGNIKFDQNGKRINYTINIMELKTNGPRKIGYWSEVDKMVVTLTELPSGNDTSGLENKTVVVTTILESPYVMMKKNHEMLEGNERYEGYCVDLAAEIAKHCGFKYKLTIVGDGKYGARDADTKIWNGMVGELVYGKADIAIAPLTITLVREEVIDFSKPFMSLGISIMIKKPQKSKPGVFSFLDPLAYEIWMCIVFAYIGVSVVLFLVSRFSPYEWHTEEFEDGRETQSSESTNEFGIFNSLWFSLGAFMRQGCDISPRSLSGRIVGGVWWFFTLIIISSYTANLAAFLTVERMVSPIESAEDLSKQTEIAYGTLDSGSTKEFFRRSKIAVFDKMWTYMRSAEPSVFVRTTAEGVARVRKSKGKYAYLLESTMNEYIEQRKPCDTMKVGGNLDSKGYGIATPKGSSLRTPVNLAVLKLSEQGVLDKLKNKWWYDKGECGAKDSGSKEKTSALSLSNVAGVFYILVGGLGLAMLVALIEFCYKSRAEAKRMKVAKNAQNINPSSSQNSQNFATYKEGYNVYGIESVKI
Method: as §1
To test the inhibition, the selective AMPA receptor antagonist GYKI52446 was used from 10 to 1000 μM on the potentiation caused by S 47445 (1 μM).
EC50 were determined either using Matlab (Mathworks inc., Natick, USA) or SAS v9.2 (SAS Institute inc., Cary, USA) softwares. To have a comparative value between the tested drugs when EC50 could not be determined (absence of plateau at high concentrations), the EC2X was determined. EC2X corresponds to the concentrations of the drug responsible for a two-fold increase in the amplitude of the current.

[3] = system: rat primary cortical cell cultures; experiment: LDH release toxicity assay on rat primary cortical cell cultures; conditions: MK801 1 μM; data not shown

SMILES	EC2X (Rat AMPA receptors) [µM]	Emax (fold increase) (Rat AMPA receptors)	EC50 (Rat AMPA receptors) [µM]	EC2X (Human AMPA receptors) [µM]	Emax (fold increase) (Human AMPA receptors)	EC50 (Human AMPA receptors) [µM]	also measured
CC(C)S(=O)(=O)NC[C@H](C)c1ccc(-c2ccc(CCNS(C)(=O)=O)cc2)cc1 [LY451395]	0.04	14.03± 0.70	0.37				
NC(=O)COc1c(F)cc(SCCNS(=O)(=O)c2ccccc2)cc1F [PEPA, 4-[2-(Phenylsulfonylamino)ethylthio]-2,6-Difluoro-Phenoxyacetamide]							Increase of agonist potency (GluA3flop receptors): approximately 7 fold
O=S1(=O)N[C@H]2CCCN2c2ccccc21 [S 18986]	23.77	15.37 ± 2.21	125	16.88	14.51 ± 1.53		
CC(CNS(=O)(=O)C(C)C)c1ccc(-c2ccsc2)cc1 (centres unmarked) [LY392098]							Increase of agonist potency [1]: approximately 7 fold
CC1=NN=C(c2ccc(N)cc2)c2cc3c(cc2C1)OCO3.Cl.Cl [GYKI52466, 4-(8-Methyl-9H-1,3-dioxolo[4,5-h][2,3]benzodiazepin-5-yl)-benzenamine dihydrochloride, reference compound]							Effect on the potentiation caused by S 47445 (1 μM) [2]: concentration-dependently reversed
O=C1c2cc3c(cc2OC2CCCN12)OCCO3 (centres unmarked) [CX614]	1.03	30.32 ± 5.67	17.3	0.88	23.43 ± 2.32	11.4	
NS(=O)(=O)c1cc2c(cc1Cl)NC(C1CC3C=CC1C3)NS2(=O)=O (centres unmarked) [Cyclothiazide]	1.68	8.86 ± 0.79	8.83	1.54	9.40 ± 2.61	9.33	
CC(CNS(=O)(=O)C(C)C)c1ccc(-c2ccc(C#N)cc2)cc1 (centres unmarked) [LY404187]	0.32	16.40 ± 2.22	3.01	0.37	29.67 ± 2.67	4.64	
O=C(c1ccc2nccnc2c1)N1CCCCC1 [CX516]		1.72 ± 0.1			3.13		
C[C@]12N[C@H](Cc3ccccc31)c1ccccc12 [MK801, reference compound]							Effect on 100 μM glutamate-mediated toxicity [3]: completely reversed
